Measured values: patent US20230303569A1, “HETEROCYCLIC COMPOUNDS AS THERAPEUTIC AGENTS” (Arisan Therapeutics Inc., priority 2021, published 2023)
Like-named read-outs stand apart in the source and are kept apart here.

Assays:
Format in all cases: cell-based
[1] = target: T1, human Nav1.5 (pulse 1, tonic inhibition) (Homo sapiens, UniProt Q14524); experiment: Two pulse assay protocol, Nav1.5; settings: HEK293 cells stably expressing human Nav1.5, pH 7.3, peak current, pulse 1 (tonic), read-out: percent inhibition hNav1.5, Pulse 1 (5 uM)
T1 construct: host or cells: HEK293
T1 sequence (Q14524 whole entry): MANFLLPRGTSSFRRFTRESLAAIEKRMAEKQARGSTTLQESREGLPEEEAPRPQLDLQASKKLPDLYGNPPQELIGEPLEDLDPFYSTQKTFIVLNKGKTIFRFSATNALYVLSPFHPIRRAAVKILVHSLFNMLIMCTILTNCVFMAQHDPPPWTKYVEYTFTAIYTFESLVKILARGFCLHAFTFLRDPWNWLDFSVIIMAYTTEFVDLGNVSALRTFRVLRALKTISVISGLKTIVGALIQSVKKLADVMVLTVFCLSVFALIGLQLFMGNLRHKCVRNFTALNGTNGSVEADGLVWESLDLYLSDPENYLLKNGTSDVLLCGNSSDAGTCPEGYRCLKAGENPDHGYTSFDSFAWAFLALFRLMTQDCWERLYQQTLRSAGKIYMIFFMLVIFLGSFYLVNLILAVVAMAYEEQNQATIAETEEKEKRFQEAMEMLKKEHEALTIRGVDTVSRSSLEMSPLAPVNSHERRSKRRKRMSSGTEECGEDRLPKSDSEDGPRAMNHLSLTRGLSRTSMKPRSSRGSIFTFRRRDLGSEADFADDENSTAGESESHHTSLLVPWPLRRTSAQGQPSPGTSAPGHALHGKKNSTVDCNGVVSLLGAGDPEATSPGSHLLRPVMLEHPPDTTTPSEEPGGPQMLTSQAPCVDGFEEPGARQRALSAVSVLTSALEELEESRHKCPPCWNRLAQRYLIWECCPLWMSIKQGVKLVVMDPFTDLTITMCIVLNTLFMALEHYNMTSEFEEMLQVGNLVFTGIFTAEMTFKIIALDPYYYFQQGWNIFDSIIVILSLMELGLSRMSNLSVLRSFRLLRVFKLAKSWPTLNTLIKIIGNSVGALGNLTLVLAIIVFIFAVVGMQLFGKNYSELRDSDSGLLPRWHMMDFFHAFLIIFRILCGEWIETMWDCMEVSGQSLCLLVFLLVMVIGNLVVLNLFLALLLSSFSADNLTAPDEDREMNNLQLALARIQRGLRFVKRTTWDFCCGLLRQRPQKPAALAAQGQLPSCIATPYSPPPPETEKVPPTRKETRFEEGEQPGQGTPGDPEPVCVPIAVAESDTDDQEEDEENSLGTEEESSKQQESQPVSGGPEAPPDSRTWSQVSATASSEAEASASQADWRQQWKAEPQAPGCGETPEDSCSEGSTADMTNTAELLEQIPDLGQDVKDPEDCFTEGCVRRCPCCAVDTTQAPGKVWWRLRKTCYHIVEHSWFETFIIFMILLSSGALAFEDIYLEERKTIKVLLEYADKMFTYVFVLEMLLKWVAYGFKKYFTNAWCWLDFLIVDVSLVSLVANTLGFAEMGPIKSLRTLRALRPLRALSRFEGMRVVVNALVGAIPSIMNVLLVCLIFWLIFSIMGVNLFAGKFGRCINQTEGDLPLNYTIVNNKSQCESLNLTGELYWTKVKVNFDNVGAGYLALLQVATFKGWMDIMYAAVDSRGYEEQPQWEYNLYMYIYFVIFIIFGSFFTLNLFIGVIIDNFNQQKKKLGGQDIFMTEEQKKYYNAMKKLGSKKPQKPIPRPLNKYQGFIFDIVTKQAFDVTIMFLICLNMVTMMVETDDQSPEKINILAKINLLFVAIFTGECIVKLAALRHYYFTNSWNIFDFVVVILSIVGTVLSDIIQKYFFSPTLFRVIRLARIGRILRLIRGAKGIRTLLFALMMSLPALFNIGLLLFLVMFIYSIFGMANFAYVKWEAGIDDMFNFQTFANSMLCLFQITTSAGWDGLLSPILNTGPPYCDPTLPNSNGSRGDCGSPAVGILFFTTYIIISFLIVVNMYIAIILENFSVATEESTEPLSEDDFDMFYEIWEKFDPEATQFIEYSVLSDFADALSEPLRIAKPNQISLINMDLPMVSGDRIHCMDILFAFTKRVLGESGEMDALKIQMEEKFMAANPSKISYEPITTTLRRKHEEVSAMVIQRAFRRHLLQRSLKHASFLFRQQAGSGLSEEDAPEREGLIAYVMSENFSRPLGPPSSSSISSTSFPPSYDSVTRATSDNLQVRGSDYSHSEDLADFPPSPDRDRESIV
Experimental: (§1) In vitro Na+ Current Inhibition Assays were performed by Eurofins Discovery (St Charles, MO). All compound functional activity determinations were determined through electrophysiological analyses of Na+ currents in HEK293 cells expressing a stably transfected Na+ channel (human Nav1.1, 1.2, 1.3, 1.5, 1.6, 1.7, or 1.8). After harvesting with Accutase cells are maintained in serum free medium at room temperature prior to electrophysiological recording utilizing the QPatch HT automated whole-cell patch-clamp platform (Sophion Bioscience, Woburn MA). Stock solution aliquots of the test compound are prepared in DMSO at 300× the final assay concentrations, and stored at −20° C. until the day of assay. On the day of the assay, an aliquot of the stock solution is thawed and diluted into external solution (137 mM NaCl, 4 mM KCl, 1 mM MgCl2, 1.8 mM CaCl2, 10 mM HEPES, 10 mM Glucose (pH 7.3, titrated with 10M NaOH) to make final test concentrations. A final concentration of 0.33% DMSO is maintained for each concentration of the assay compounds. Internal solution for recordings of Na+ consist consists of 100 mM CsF, 45 mM CsCl, 5 mM NaCl, 10 mM HEPES, 5 mM EGTA (pH 7.3, titrated with 1M CsOH).
(§2) Two pulse assay protocol for human Nav1.1, 1.2, 1.3, 1.5, 1.6, 1.7, and 1.8 channels. Mammalian cultured cells expressing the indicated human Nav1.1, 1.2, 1.3, 1.5, 1.6, 1.7 or 1.8 channels were assayed using the The QPatch HT (Sophion Bioscience, Woburn MA) automated system with an intracellular solution (mM) of 100 CsF, 45 CsCl, 5 NaCl, 10 HEPES, 5 EGTA (pH 7.3, titrated with 1M CsOH) and extracellular solution (mM) of 137 NaCl, 4 KCl, 1 MgCl2, 1.8 CaCl2, 10 HEPES, 10 Glucose (pH 7.3, titrated with 10M NaOH). Onset and steady state block of the sodium channel was measured using a pulse pattern, repeated every 20 seconds (s) from a holding potential of −120 mV for 100 ms, and then pulsed to 0 mV for 500 ms to inactivate the Na channels and facilitate inactivated state-dependent binding of the test compounds. The cell membranes were then stepped back to −120 mV for 10 ms to recover from inactivation into resting or closed state (channels with test compound bound to them will not recover from inactivation and will not open) before stepping to 0 mV for 50 ms (pulse 2) to measure Na channels that are available to open. Peak current was measured during the step to 0 mV at pulse 1 and 2 to measure tonic and state-dependent inhibition. Compound activities were assessed by dividing post current amplitude (at the end of each five (5) minute compound application) by the vehicle control amplitude and the mean calculated for each compound concentration. Tetracaine was used as a positive control and was tested concurrently with the test compounds. Current amplitudes in excess of 200 pA at the control stage were analyzed. The amplitude of the current was calculated by measuring the difference between the peak inward current on stepping to 0 mV (i.e. peak of the current) and remaining current at the end of the step. The current was assessed in vehicle control conditions and then at the end of each five (5) minute compound application.

[2] = target: T2, human Nav1.5 (pulse 2, state-dependent inhibition) (Homo sapiens, UniProt Q14524); experiment: Two pulse assay protocol, Nav1.5; settings: HEK293 cells stably expressing human Nav1.5, pH 7.3, peak current, pulse 2 (state-dependent), read-out: percent inhibition hNav1.5, Pulse 2 (5 uM)
T2 construct: host or cells: HEK293
Experimental: as §1, §2

human Nav1.7 = target: T3, human Nav1.7 (Homo sapiens, UniProt Q15858); experiment: Two pulse assay protocol, Nav1.7; settings: peak current
T3 construct: host or cells: HEK293
Experimental: as §1, §2

human Nav1.8 = target: T4, human Nav1.8 (Homo sapiens, UniProt Q9Y5Y9); experiment: Two pulse assay protocol, Nav1.8; settings: peak current
T4 construct: host or cells: HEK293
Experimental: as §1, §2

[3] = target: T5, human Nav1.5 (late current) (Homo sapiens, UniProt Q14524); experiment: Nav1.5 Late Current Assay (QPatch HT whole-cell patch clamp, 30 nM ATX-II); settings: HEK293 cells stably expressing human Nav1.5, pH 7.3, late current with 30 nM ATX-II, read-out: percent inhibition hNav1.5 Late (5 uM)
T5 construct: host or cells: HEK293
Experimental: as §1
Onset and steady state induction of late Nav1.5 current was measured using a pulse pattern, repeated every 5 sec, consisting of a hyperpolarizing pulse to −120 mV for a 200 ms duration, depolarization to −15 mV amplitude for a 40 ms duration, followed by step to 40 mV for 200 ms and finally a 100 ms ramp (1.2 V/s) to a holding potential of −80 mV. Each concentration of compound was applied for 5 minutes. The assay was performed at room temperature. After establishing vehicle control condition, all further addition of external solutions contain 30 nM ATX-II to activate late currents. Each concentration of compound was also co-applied with 30 nM ATXII to estimate the Nav1.5 late current inhibition. […]. ATXII was used as the agonist positive control and was tested concurrently with the test compound. Ranolazine was used as the positive control and was tested concurrently with the test compound.
Nav1.5 late current was measured as the total charge flowing through the Nav1.5 channels (area under the curve) 5 ms after the Nav1.5 peak current till the end of the test pulse and as charge at their maxima during the ramp. Individual cell results were normalized to their respective vehicle control and the results were averaged. The sodium current was assessed in 30 nM ATXII as vehicle control conditions and then at the end of each five (5) minute compound application in the presence of 30 nM ATXII. Individual cell result was normalized to 30 nM ATXII vehicle control amplitude and the mean±SEM calculated for each compound concentration.

[4] = target: T6, human Nav1.5 (peak current) (Homo sapiens, UniProt Q14524); experiment: Nav1.5 Peak Current Assay (QPatch HT whole-cell patch clamp); settings: HEK293 cells stably expressing human Nav1.5, pH 7.3, peak current at step to -15 mV, read-out: percent inhibition hNav1.5 Peak (5 uM)
T6 construct: host or cells: HEK293
Experimental: as §1
Onset and steady state block of peak Nav1.5 current was measured using a pulse pattern, repeated every 5 sec, consisting of a hyperpolarizing pulse to −120 mV for a 200 ms duration, depolarization to -15 mV amplitude for a 40 ms duration, followed by step to 40 mV for 200 ms and finally a 100 ms ramp (1.2 V/s) to a holding potential of −80 mV. Peak current was measured during the step to −15 mV.
Each concentration of compound was applied for 5 minutes. The assay was performed at room temperature and Tetracaine was used concurrently as a positive control. Only current amplitudes in excess of 200 pA at the control stage were analyzed. The amplitude of the sodium current was calculated by measuring the difference between the peak inward current on stepping to −15 mV (i.e. peak of the current) and the leak current. The sodium current was assessed in vehicle control conditions and then at the end of each five (5) minute compound application. Individual cell result was normalized to the vehicle control amplitude and the mean±SEM calculated for each compound concentration.

human Nav1.6 = target: T7, human Nav1.6 (Homo sapiens, UniProt Q9UQD0); experiment: Two pulse assay protocol, Nav1.6; settings: 5 uM, peak current
T7 construct: host or cells: HEK293
Experimental: as §1, §2

human Nav1.2 = target: T8, human Nav1.2 (Homo sapiens, UniProt Q99250); experiment: Two pulse assay protocol, Nav1.2; settings: peak current
T8 construct: host or cells: HEK293
T8 sequence (Q99250 whole entry): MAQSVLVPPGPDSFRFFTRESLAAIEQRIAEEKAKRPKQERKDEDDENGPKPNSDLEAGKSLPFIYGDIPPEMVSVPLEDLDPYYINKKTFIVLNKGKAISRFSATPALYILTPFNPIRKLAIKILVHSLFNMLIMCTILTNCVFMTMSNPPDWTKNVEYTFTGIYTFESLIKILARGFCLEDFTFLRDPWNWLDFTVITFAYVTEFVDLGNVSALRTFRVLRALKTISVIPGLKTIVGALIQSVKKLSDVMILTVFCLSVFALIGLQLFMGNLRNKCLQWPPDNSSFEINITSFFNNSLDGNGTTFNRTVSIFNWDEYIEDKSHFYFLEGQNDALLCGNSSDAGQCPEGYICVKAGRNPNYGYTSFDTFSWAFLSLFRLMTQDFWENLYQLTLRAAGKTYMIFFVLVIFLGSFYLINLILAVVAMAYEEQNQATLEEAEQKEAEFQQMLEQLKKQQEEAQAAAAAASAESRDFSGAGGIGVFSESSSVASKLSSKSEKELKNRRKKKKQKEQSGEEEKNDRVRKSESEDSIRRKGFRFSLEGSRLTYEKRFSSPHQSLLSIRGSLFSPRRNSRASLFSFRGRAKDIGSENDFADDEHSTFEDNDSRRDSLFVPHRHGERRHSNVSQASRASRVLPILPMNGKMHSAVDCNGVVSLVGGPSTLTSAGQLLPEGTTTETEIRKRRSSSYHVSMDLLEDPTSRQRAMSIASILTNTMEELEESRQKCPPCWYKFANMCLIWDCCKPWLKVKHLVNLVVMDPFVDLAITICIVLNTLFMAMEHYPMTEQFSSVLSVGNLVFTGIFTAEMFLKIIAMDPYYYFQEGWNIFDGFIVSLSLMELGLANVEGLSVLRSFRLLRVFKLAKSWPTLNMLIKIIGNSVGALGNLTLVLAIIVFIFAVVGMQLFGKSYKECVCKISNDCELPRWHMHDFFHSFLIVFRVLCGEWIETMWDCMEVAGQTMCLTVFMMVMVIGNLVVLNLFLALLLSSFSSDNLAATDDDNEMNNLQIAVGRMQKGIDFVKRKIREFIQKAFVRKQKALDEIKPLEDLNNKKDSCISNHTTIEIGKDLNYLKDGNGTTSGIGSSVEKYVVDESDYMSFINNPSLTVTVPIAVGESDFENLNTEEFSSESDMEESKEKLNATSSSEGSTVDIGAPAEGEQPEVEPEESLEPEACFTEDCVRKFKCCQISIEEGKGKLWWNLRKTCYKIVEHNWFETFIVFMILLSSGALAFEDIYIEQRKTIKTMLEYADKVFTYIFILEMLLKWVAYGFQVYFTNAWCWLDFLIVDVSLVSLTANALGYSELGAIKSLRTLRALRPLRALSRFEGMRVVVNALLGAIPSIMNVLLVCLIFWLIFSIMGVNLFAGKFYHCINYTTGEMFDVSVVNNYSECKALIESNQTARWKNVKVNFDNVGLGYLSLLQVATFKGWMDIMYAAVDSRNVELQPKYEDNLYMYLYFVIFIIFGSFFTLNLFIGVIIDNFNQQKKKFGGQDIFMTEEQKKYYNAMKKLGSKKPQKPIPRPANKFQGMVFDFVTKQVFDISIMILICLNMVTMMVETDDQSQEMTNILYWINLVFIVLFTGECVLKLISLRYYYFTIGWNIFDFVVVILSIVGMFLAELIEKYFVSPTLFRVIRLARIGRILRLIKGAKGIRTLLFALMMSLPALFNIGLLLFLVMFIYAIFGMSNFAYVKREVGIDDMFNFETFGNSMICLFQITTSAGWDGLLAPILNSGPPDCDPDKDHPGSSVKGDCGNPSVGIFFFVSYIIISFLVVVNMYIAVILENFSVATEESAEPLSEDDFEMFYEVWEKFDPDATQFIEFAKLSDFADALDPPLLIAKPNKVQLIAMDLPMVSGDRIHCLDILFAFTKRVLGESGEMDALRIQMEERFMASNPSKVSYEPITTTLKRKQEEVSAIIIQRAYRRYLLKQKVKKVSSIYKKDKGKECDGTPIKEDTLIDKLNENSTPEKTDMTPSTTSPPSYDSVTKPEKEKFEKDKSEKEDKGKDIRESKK
Experimental: as §1, §2

[5] = pulse 1 (tonic), read-out: percent inhibition hNav1.7, Pulse 1 (5 uM)
[6] = pulse 2 (state-dependent), read-out: percent inhibition hNav1.7, Pulse 2 (5 uM)
[7] = pulse 1 (tonic), read-out: percent inhibition hNav1.6, Pulse 1 (5 uM)
[8] = pulse 2 (state-dependent), read-out: percent inhibition hNav1.6, Pulse 2 (5 uM)
[9] = pulse 1 (tonic), read-out: percent inhibition hNav1.2, Pulse 1 (5 uM)
[10] = pulse 2 (state-dependent), read-out: percent inhibition hNav1.2, Pulse 2 (5 uM)

| inhibition at 5 µM (human Nav1.7; [5]) | inhibition at 5 µM (human Nav1.7; [6]) | inhibition at 5 µM (human Nav1.6; [7]) | inhibition at 5 µM (human Nav1.6; [8]) | inhibition at 5 µM (human Nav1.2; [9]) | inhibition at 5 µM (human Nav1.2; [10]) | SMILES | inhibition at 5 min, 5 µM [1] | inhibition at 5 min, 5 µM [2] | inhibition at 5 µM (human Nav1.8; pulse 1 (tonic), read-out: percent inhibition hNav1.8, Pulse 1 (5 uM)) | inhibition at 5 µM (human Nav1.8; pulse 2 (state-dependent), read-out: percent inhibition hNav1.8, Pulse 2 (5 uM)) | inhibition at 5 min, 5 uM [3] | inhibition at 5 min, 5 µM [4] |
| --- | --- | --- | --- | --- | --- | --- | --- | --- | --- | --- | --- | --- |
|  |  | < 50% | < 50% |  |  | Cc1cc2ncc(-c3ccc(OC(C)C)nc3)n2cc1-c1ccc(OC(C)C)cc1 [Example C70, 6-(4-isopropoxyphenyl)-3-(6-isopropoxypyridin-3-yl)-7-methylimidazo[1,2-a]pyridine] |  |  |  |  | 50 to 90% | < 50% |
| < 50% | > 90% | < 50% | > 90% | < 50% | > 90% | CC(C)Oc1ccc(-c2ccc3ncc(-c4ccc(Oc5ccccc5)cc4)n3c2)cc1 [Example C72, 6-(4-isopropoxyphenyl)-3-(4-phenoxyphenyl)imidazo[1,2-a]pyridine] | < 50% | 50 to 90% |  |  |  |  |
| < 50% | 50 to 90% | < 50% | > 90% | < 50% | > 90% | CC(C)Oc1ccc(-c2ccc3ncc(-c4ccc(C(C)C)cc4)n3c2)cc1 [Example C73, 6-(4-isopropoxyphenyl)-3-(4-isopropylphenyl)imidazo[1,2-a]pyridine] | < 50% | > 90% |  |  |  |  |

| SMILES | inhibition at 5 µM (human Nav1.7; [5]) | inhibition at 5 µM (human Nav1.7; [6]) | inhibition at 5 µM (human Nav1.6; [7]) | inhibition at 5 µM (human Nav1.6; [8]) | inhibition at 5 µM (human Nav1.2; [9]) | inhibition at 5 µM (human Nav1.2; [10]) | inhibition at 5 min, 5 µM [1] | inhibition at 5 min, 5 µM [2] | inhibition at 5 µM (human Nav1.8; pulse 1 (tonic), read-out: percent inhibition hNav1.8, Pulse 1 (5 uM)) | inhibition at 5 µM (human Nav1.8; pulse 2 (state-dependent), read-out: percent inhibition hNav1.8, Pulse 2 (5 uM)) | inhibition at 5 min, 5 uM [3] | inhibition at 5 min, 5 µM [4] |
| --- | --- | --- | --- | --- | --- | --- | --- | --- | --- | --- | --- | --- |
| CS(=O)(=O)NC(=O)c1cc2ncc(-c3ccc(OC(F)(F)F)cc3)n2cc1-c1ccccc1 [Example C68, N-(methylsulfonyl)-6-phenyl-3-(4-(trifluoromethoxy)phenyl)imidazo[1,2-a]pyridine-7-carboxamide] | < 50% | < 50% |  |  |  |  | < 50% | < 50% | < 50% | < 50% |  |  |
